The source made the active and inactive calls. The calls are words filed in the database; no cut-off is given here.
Key:
HCT-116 [1] = experiment: Cytotoxicity against human HCT116 cells assessed as growth inhibition at 50 uM after 48 hrs by SRB assay relative to control; assay type: functional; conditions: HCT-116, 48 h, read-out: GI
COLO 205 [2] = experiment: Cytotoxicity against human COLO205 cells assessed as growth inhibition at 50 uM after 48 hrs by SRB assay relative to control; assay type: functional; conditions: COLO 205, 48 h, read-out: GI
THP-1 [3] = experiment: Cytotoxicity against human THP1 cells assessed as growth inhibition at 50 uM after 48 hrs by SRB assay relative to control; assay type: functional; conditions: THP-1, 48 h, read-out: GI
PC-3 = experiment: Cytotoxicity against human PC3 cells assessed as growth inhibition at 50 uM after 48 hrs by SRB assay relative to control; assay type: functional; conditions: PC-3, 48 h, read-out: GI
THP-1 [4] = experiment: Cytotoxicity against human THP1 cells assessed as cell growth inhibition after 48 hrs by SRB assay; assay type: functional, cell-based; conditions: THP-1, 48 h
COLO 205 [5] = experiment: Cytotoxicity against human COLO205 cells assessed as cell growth inhibition after 48 hrs by SRB assay; assay type: functional, cell-based; conditions: COLO 205, 48 h
HCT-116 [6] = experiment: Cytotoxicity against human HCT116 cells assessed as cell growth inhibition after 48 hrs by SRB assay; assay type: functional, cell-based; conditions: HCT-116, 48 h
Homo sapiens [7] = species on record: Homo sapiens; experiment: Inhibition of tubulin polymerization in human THP1 cells assessed as disrupted microtubule formation at 1 uM after 48 hrs by confocal microscopic analysis; assay type: cell-based
[8] = Inhibition of tubulin (unknown origin) polymerization; design: species or system Homo sapiens
Homo sapiens [9] = species on record: Homo sapiens; experiment: Inhibition of tubulin polymerization in human THP1 cells assessed as disrupted microtubule formation at 5 uM after 48 hrs by confocal microscopic analysis; assay type: cell-based

Row | IC50 [8] | SMILES | inhibition of growth at 50 µM (HCT-116 [1]) | inhibition of growth at 50 µM (COLO 205 [2]) | inhibition of growth at 50 µM (THP-1 [3]) | inhibition of growth at 50 µM (PC-3) | IC50 (THP-1 [4]) | IC50 (COLO 205 [5]) | IC50 (HCT-116 [6]) | inhibition (Homo sapiens [7]) | inhibition (Homo sapiens [9])
1 |  | O=C1C(=O)N(CCCCn2cc(COc3cc(=O)oc4ccccc34)nn2)c2ccc(F)cc21 | 67% | 64% | 77% | 17% | 7.1 µM | 9.11 µM | 10.4 µM |  | 
2 |  | CC(=O)O[C@H]1C(=O)[C@@]2(C)[C@H]([C@H](OC(=O)c3ccccc3)[C@]3(O)C[C@H](OC(=O)[C@H](O)[C@@H](NC(=O)c4ccccc4)c4ccccc4)C(C)=C1C3(C)C)[C@]1(OC(C)=O)CO[C@@H]1C[C@@H]2O |  |  |  |  |  |  |  | Active | 
3 |  | O=C1C(=O)N(CCn2cc(COc3cc(=O)oc4ccccc34)nn2)c2ccc(I)cc21 | 70% | 62% | 74% | 17% | 7.01 µM | 12 µM | 8.99 µM |  | 
4 |  | O=C1C(=O)N(CCCCCn2cc(COc3cc(=O)oc4ccccc34)nn2)c2ccc(Cl)cc21 | 52% | 48% | 59% |  |  |  |  |  | 
5 |  | O=C1C(=O)N(CCn2cc(COc3cc(=O)oc4ccccc34)nn2)c2ccc(Cl)cc21 | 70% | 76% | 87% | 22% | 5.47 µM | 8.87 µM | 5.77 µM |  | 
6 |  | O=C1C(=O)N(CCCCCn2cc(COc3cc(=O)oc4ccccc34)nn2)c2ccc([N+](=O)[O-])cc21 | 29% | 23% | 37% |  |  |  |  |  | 
7 |  | O=C1C(=O)N(CCCn2cc(COc3cc(=O)oc4ccccc34)nn2)c2ccc(Cl)cc21 | 68% | 67% | 78% | 18% | 6.99 µM | 10.7 µM | 9.66 µM |  | 
8 |  | O=C1C(=O)N(CCCCn2cc(COc3cc(=O)oc4ccccc34)nn2)c2ccccc21 | 72% | 68% | 85% | 19% | 5.12 µM | 7.67 µM | 8.05 µM |  | 
9 |  | O=C1C(=O)N(CCCCn2cc(COc3cc(=O)oc4ccccc34)nn2)c2ccc([N+](=O)[O-])cc21 | 53% | 45% | 55% | 8% |  |  |  |  | 
10 |  | O=C1C(=O)N(CCCCCn2cc(COc3cc(=O)oc4ccccc34)nn2)c2ccc(Br)cc21 | 43% | 39% | 52% |  |  |  |  |  | 
11 | 3.55 µM | O=C1C(=O)N(CCn2cc(COc3cc(=O)oc4ccccc34)nn2)c2ccc(F)cc21 | 80% | 76% | 92% | 26% | 1.99 µM | 6.67 µM | 5.41 µM |  | 
12 |  | O=C1C(=O)N(CCCCn2cc(COc3cc(=O)oc4ccccc34)nn2)c2ccc(Cl)cc21 | 62% | 60% | 71% | 14% | 7.56 µM | 13.1 µM | 12.8 µM |  | 
13 |  | O=C1C(=O)N(CCCn2cc(COc3cc(=O)oc4ccccc34)nn2)c2ccc(I)cc21 | 65% | 56% | 67% | 14% |  |  |  |  | 
14 |  | O=C1C(=O)N(CCCn2cc(COc3cc(=O)oc4ccccc34)nn2)c2ccc(Br)cc21 | 66% | 61% | 72% | 14% | 7.14 µM | 13 µM | 11.5 µM |  | 
15 |  | O=C1C(=O)N(CCCn2cc(COc3cc(=O)oc4ccccc34)nn2)c2ccc([N+](=O)[O-])cc21 | 60% | 52% | 60% | 12% |  |  |  |  | 
16 |  | COc1ccc2c(c1)C(=O)C(=O)N2CCn1cc(COc2cc(=O)oc3ccccc23)nn1 | 65% | 53% | 68% | 14% |  |  |  |  | 
17 |  | O=C1C(=O)N(CCCCn2cc(COc3cc(=O)oc4ccccc34)nn2)c2ccc(Br)cc21 | 59% | 56% | 63% | 13% |  |  |  |  | 
18 |  | O=C1C(=O)N(CCn2cc(COc3cc(=O)oc4ccccc34)nn2)c2ccc([N+](=O)[O-])cc21 | 68% | 59% | 71% | 15% | 8.57 µM | 13 µM | 9.54 µM |  | 
19 | 6.32 µM | O=C1C(=O)N(CCCn2cc(COc3cc(=O)oc4ccccc34)nn2)c2ccccc21 | 79% | 75% | 93% | 25% | 5.03 µM | 5.71 µM | 5.18 µM |  | 
20 |  | COc1ccc2c(c1)C(=O)C(=O)N2CCCCCn1cc(COc2cc(=O)oc3ccccc23)nn1 | 25% | 19% | 30% |  |  |  |  |  | 
21 |  | COc1ccc2c(c1)C(=O)C(=O)N2CCCn1cc(COc2cc(=O)oc3ccccc23)nn1 | 52% | 48% | 56% | 9% |  |  |  |  | 
22 |  | O=C1C(=O)N(CCCCCn2cc(COc3cc(=O)oc4ccccc34)nn2)c2ccccc21 | 65% | 62% | 69% | 9% |  |  |  |  | 
23 |  | O=C1C(=O)N(CCCn2cc(COc3cc(=O)oc4ccccc34)nn2)c2ccc(F)cc21 | 75% | 69% | 86% | 20% | 5.76 µM | 8.88 µM | 7.26 µM |  | 
24 |  | O=C1C(=O)N(CCCCCn2cc(COc3cc(=O)oc4ccccc34)nn2)c2ccc(I)cc21 | 36% | 30% | 45% |  |  |  |  |  | 
25 |  | O=C1C(=O)N(CCCCn2cc(COc3cc(=O)oc4ccccc34)nn2)c2ccc(I)cc21 | 57% | 50% | 59% | 10% |  |  |  |  | 
26 | 1.06 µM | O=C1C(=O)N(CCn2cc(COc3cc(=O)oc4ccccc34)nn2)c2ccccc21 | 87% | 80% | 98% | 28% | 0.73 µM | 3.45 µM | 3.04 µM |  | Active
27 |  | O=C1C(=O)N(CCCCCn2cc(COc3cc(=O)oc4ccccc34)nn2)c2ccc(F)cc21 | 59% | 56% | 63% |  |  |  |  |  | 
28 |  | O=C1C(=O)N(CCn2cc(COc3cc(=O)oc4ccccc34)nn2)c2ccc(Br)cc21 | 72% | 65% | 80% | 21% | 6.43 µM | 10.5 µM | 8.09 µM |  | 
29 |  | COc1ccc2c(c1)C(=O)C(=O)N2CCCCn1cc(COc2cc(=O)oc3ccccc23)nn1 | 48% | 41% | 52% |  |  |  |  |  | 
